Data published in the NIST ThermoML archive (doi:10.1016/j.fluid.2006.10.012).

Test: osmotic coefficient (dimensionless); mn = molality of the nth substance listed, in mol/kg
Conditions: Liquid, isopiestic method

CC(N)C(=O)O (stereo not drawn) [DL-2-aminopropanoic acid] + O
Conditions	osmotic coefficient
288.15 K, m1 = 0.2159	0.9497
288.15 K, m1 = 0.2163	0.9496
288.15 K, m1 = 0.3062	0.944
288.15 K, m1 = 0.3066	0.944
288.15 K, m1 = 0.5085	0.9513
288.15 K, m1 = 0.5093	0.9514
288.15 K, m1 = 0.6031	0.9603
288.15 K, m1 = 0.6037	0.9603
288.15 K, m1 = 0.8076	0.9837
288.15 K, m1 = 0.8082	0.9838
288.15 K, m1 = 1.098	1.01
293.15 K, m1 = 0.2061	0.9725
293.15 K, m1 = 0.2068	0.9724
293.15 K, m1 = 0.3536	0.9656
293.15 K, m1 = 0.354	0.9656
293.15 K, m1 = 0.5134	0.9677
293.15 K, m1 = 0.5145	0.9677
293.15 K, m1 = 0.8192	0.9905
293.15 K, m1 = 0.8199	0.9905
293.15 K, m1 = 0.9719	1.007
293.15 K, m1 = 0.9725	1.007
293.15 K, m1 = 1.185	1.029
293.15 K, m1 = 1.186	1.029
298.15 K, m1 = 0.2238	0.9972
298.15 K, m1 = 0.2243	0.9954
298.15 K, m1 = 0.3134	0.9976
298.15 K, m1 = 0.3135	0.9972
298.15 K, m1 = 0.52	0.9983
298.15 K, m1 = 0.5203	0.9977
298.15 K, m1 = 0.5759	0.9986
298.15 K, m1 = 0.5762	0.9982
298.15 K, m1 = 0.7604	0.9998
298.15 K, m1 = 0.7609	0.9991
298.15 K, m1 = 1.056	1
303.15 K, m1 = 0.207	1.004
303.15 K, m1 = 0.2076	1.004
303.15 K, m1 = 0.3362	1.004
303.15 K, m1 = 0.3364	1.004
303.15 K, m1 = 0.5119	1.004
303.15 K, m1 = 0.5129	1.004
303.15 K, m1 = 0.7159	1.006
303.15 K, m1 = 0.7166	1.006
303.15 K, m1 = 0.8218	1.01
303.15 K, m1 = 0.8221	1.01
303.15 K, m1 = 1.038	1.02

CCC(N)C(=O)O (stereo not drawn) [(.+-.)-α-aminobutyric acid] + O
Conditions	osmotic coefficient
288.15 K, m1 = 0.2191	0.9642
288.15 K, m1 = 0.2194	0.9642
288.15 K, m1 = 0.3053	0.9569
288.15 K, m1 = 0.3055	0.9569
288.15 K, m1 = 0.5076	0.9529
288.15 K, m1 = 0.5082	0.953
288.15 K, m1 = 0.595	0.9567
288.15 K, m1 = 0.596	0.9567
288.15 K, m1 = 0.7815	0.9748
288.15 K, m1 = 0.7821	0.9749
288.15 K, m1 = 1.057	1.025
288.15 K, m1 = 1.059	1.025
293.15 K, m1 = 0.2031	0.9894
293.15 K, m1 = 0.2034	0.9894
293.15 K, m1 = 0.3484	0.9811
293.15 K, m1 = 0.3492	0.9811
293.15 K, m1 = 0.508	0.9744
293.15 K, m1 = 0.5086	0.9744
293.15 K, m1 = 0.8066	0.9819
293.15 K, m1 = 0.8078	0.982
293.15 K, m1 = 0.9443	1.0001
293.15 K, m1 = 0.9453	1.0003
293.15 K, m1 = 1.139	1.048
293.15 K, m1 = 1.14	1.049
298.15 K, m1 = 0.2217	1.0067
298.15 K, m1 = 0.2219	1.0058
298.15 K, m1 = 0.3106	1.0103
298.15 K, m1 = 0.3109	1.0093
298.15 K, m1 = 0.5105	1.0168
298.15 K, m1 = 0.5108	1.0163
298.15 K, m1 = 0.5636	1.0164
298.15 K, m1 = 0.5637	1.0162
298.15 K, m1 = 0.7428	1.023
298.15 K, m1 = 0.7434	1.023
298.15 K, m1 = 1.022	1.036
298.15 K, m1 = 1.023	1.036
303.15 K, m1 = 0.2054	1.0072
303.15 K, m1 = 0.206	1.0073
303.15 K, m1 = 0.3334	1.0133
303.15 K, m1 = 0.3335	1.0133
303.15 K, m1 = 0.5083	1.0187
303.15 K, m1 = 0.5087	1.0187
303.15 K, m1 = 0.7146	1.025
303.15 K, m1 = 0.7157	1.025
303.15 K, m1 = 0.8091	1.029
303.15 K, m1 = 0.8092	1.029
303.15 K, m1 = 1.03	1.046
303.15 K, m1 = 1.031	1.046
